From patent US20080234304A1, “N3-Pyridyl-Thiamine And Its Use In Cancer Treatments” (AVEO PHARMACEUTICALS, INC., priority 2004, published 2008) come the findings set out here.

As usually defined, the IC50 is the midpoint of a concentration-inhibition curve.

Entries after “also recorded” stand apart in the source; their conditions may differ.

Data set [1] can be described thus: overall animal weight and major organ weight of treated mice. It is filed as in vivo, mouse. Particulars: 200 mg/kg/day. The protocol: A mouse xenograft model was used to evaluate the efficacy of N3PT in modulating tumor growth. Cancer cells (HCT-116 Luc+, comprising a stably transfected luciferase gene) were injected subcutaneously (10^6 cells) into Balb C nude mice on both flanks on day 7 prior to treatment. Tumors were allowed to grow to palpable size from test day 0, defined as the start of a treatment regime. N3PT was injected ip (intraperitoneally) at a given regimen (e.g., 200 mg/kg/day) and tumor size monitored by luminance intensity from day 0-7, caliper measurement after day 7, and by weight at the end of study, after the animals were sacrificed. See, e.g., Wang and El-Deiry, Cancer Biol Ther. 2(2):196-202 (2003); Ray et al., Cancer Res. 63(6):1160-5 (2003); see also, e.g., U.S. Pat. Nos. 6,416,960; 6,596,257; and 6,217,847.

Data set [2] deals with HCT116. The data set is described as follows: inhibition of proliferation of HCT116 cells. It is filed as cell-based, human. Particulars: HCT116 colon carcinoma. On the procedure: (§1) The ability of N3PT to inhibit proliferation of these cell lines was then tested. LAMA84 was the most sensitive to N3PT, displaying an IC50 of 0.3 μM. The other cell lines, HCT116 and K562, were less sensitive, displaying an IC50 of approximately 2 μM in both cases. LAMA84 also had the highest TK activity (per cell) among these three cancer lines.

In data set [3] the test system is LAMA84. Kind of data set: inhibition of proliferation of LAMA84 cells. It is filed as cell-based. Particulars: LAMA84 chronic myeloid leukemia cell line. On the procedure:
as §1

Take `Cc1ccc(C[n+]2csc(CCO)c2C)c(N)n1` [N3PT, 3-[(2-amino-6-methyl-3-pyridinyl)methyl]-5-(2-hydroxyethyl)-4-methyl thiazolium]: in data set [1] (day 0, 6 and 11), the overall animal weight result was “no effect on overall animal weight; also recorded: did not affect”. In data set [1] (day 11 post treatment), the “major organ weight (brain, heart, kidney, liver, lung, spleen)” value is on record as “no effect on major organ weight; also recorded: did not affect”. Also, the IC50 in data set [2] was roughly 2000 nM; in data set [3], 300 nM.
